From patent US5935945A, “Methods of treating or preventing cardiac arrhythmia” (Merck & Co., Inc., priority 1997, dated 1999)
Read-outs that look alike come from different tables or passages of the source.

Assays:
hKv1.5 = target: T1, hKv1.5 (Homo sapiens, UniProt P22460); assay: Voltage-clamp measurement of hKv1.5 current expressed in Chinese hamster ovary (CHO) cells; format: cell-based; conditions: rested state block, first pulse; 150 ms pulses to +40 mV from -80 mV; room temperature (22-24° C); read-out: Rested State IC50, CHO Cells Expressing hKv1.5
T1 construct: expressed in transfected cells
Experimental: Expression of Kv1.5 in CHO Cells
CHOKI cells were plated at 2.7×10^4 cells/60 mm dish and incubated at 37° C., in a 5% CO2 environment for three days. Cells were then washed twice and covered with 3 ml of OptiMEM medium (Gibco). Plasmid/DOTAP solution (consisting of […] of Kv1.5 in pcDNAI/Neo and […] DOTAP transfection reagent (Boehringer Mannheim) in 1 ml of OptiMEM) was added dropwise to each plate while swirling. Plates were incubated overnight and the media then changed to 5 mls of F12 (Gibco) supplemented with 10% FBS (Sigma), 1,000 U/ml penicillin […] streptomycin (Gibco), and 2 mM glutamine (Gibco). After two more days, the cells were trypsinized and replated on 100 mm dishes in supplemented F12 media including 1 mg/ml G418 (Gibco). The medium was changed daily until nontransfected cells were killed. Cell lines were grown from individual clones and tested for expression of Kv1.5 using both the ^86 RB efflux assay and voltage clamp protocols. […] These cells were maintained in culture and on each experimental day were freshly isolated by mild trypsinization.
The patch-clamp technique was used to record ionic currents in the whole-cell configuration. Patch pipettes were obtained using a two stage puller from square bore (1.0 mm o.d.) borosillicate capillary tubing. Pipettes were filled with the following solution (in mM/L): 110 K-Gluconate or K-Aspartate, 20 KCl, 5 MgATP, 5 EGTA, 5-10 HEPES, pH 7.2. […] Following seal formation, the membrane was ruptured by gentle suction to establish the whole-cell configuration, and negative pressure was maintained on the pipette using a 1 ml gas-tight syringe attached via air tight tubing to the suction port of the microelectrode holder.
Kv1.5 currents were elicited by 150 ms depolarizing test pulses to +40 mV from a holding potential of -80 mV. The effects of test agents were assessed at steady-state. Data was analyzed as % block from control current amplitude. […] All experiments were performed at room temperature (22-24° C.). […]

T1 sequence (P22460 whole entry): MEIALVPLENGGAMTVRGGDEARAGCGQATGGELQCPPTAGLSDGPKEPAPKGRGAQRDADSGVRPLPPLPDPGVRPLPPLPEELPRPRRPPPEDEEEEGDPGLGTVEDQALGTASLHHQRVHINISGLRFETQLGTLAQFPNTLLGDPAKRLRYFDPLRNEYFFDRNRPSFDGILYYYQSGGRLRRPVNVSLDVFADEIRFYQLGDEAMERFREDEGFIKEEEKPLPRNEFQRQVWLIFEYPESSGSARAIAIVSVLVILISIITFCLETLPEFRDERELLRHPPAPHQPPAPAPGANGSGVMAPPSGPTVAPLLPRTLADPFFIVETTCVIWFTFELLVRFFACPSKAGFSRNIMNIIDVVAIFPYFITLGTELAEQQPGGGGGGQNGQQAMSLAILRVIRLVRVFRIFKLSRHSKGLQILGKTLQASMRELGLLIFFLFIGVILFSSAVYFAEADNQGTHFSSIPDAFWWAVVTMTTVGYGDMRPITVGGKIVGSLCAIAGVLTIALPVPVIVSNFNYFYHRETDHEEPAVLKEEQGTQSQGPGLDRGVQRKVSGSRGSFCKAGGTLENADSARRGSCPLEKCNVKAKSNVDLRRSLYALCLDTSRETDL
Experimental for atrial flutter: In this model, atrial flutter was induced following a Y-shaped surgical lesion comprised of an intercaval incision and a connecting incision across the right atrium. […] Bipolar electrodes also were sutured to the left ventricle for measurement of ventricular excitation threshold (VET) and ventricular relative (VRRP at 2× VET) and effective refractory periods (VERP at 10×VET). The following cardiac electrophysiologic parameters also were measured before test agent administration and at the termination of the study: AH interval, an index of AV nodal conduction; HV interval, an index of His-ventricular conduction time; P-A interval, an index of intra-atrial conduction; and H-EG interval, an index of ventricular conduction; and paced ECG QT interval. AV nodal functional refractory period (AVNFRP) and SA conduction time (SACT) were determined by the introduction of atrial extrastimuli during sinus rhythm, and the monitoring of ventricular response. Electrocardiographic intervals were determined during sinus rhythm; the rate-corrected ECG QTc interval was calculated as: QTc=QT (msec)/√R-R (sec).
Sustained atrial flutter was initiated in three dogs by electrical burst pacing (6-20 Hz) of the atria; atrial rates ranged from 440-530 cycles/min.

COc1ccc(-n2nc(Sc3ccc(Cl)cc3)c(C)c(C#N)c2=O)cc1 [Compound A, 6-(4-Chlorophenylthio)-2-(4-methoxyphenyl)-5-methyl-3-oxo-2,3-dihydropyridazine-4-carbonitrile]
IC50 (hKv1.5): 230 nM

COc1ccc(-n2nc(Sc3ccc(C)cc3)c(C)c(C#N)c2=O)cc1 [Compound B]
IC50 (hKv1.5): 120 nM

Cc1cc(C)c(CP(=O)(c2ccccc2)c2ccccc2)c(-c2ccc(F)c(C)c2)c1 [Compound C, 2-(Diphenylphosphinylmethyl)-4'-fluoro-3,5,3'-trimethyl-biphenyl]
IC50 (hKv1.5): 278 nM
atrial effective refractory period, post-treatment (atrial flutter; at doses effective in terminating atrial arrhythmia, increase from 138±5 msec pretreatment): 153 ± 8 ms
effect on atrioventricular nodal or ventricular function (atrial flutter; dog, in vivo): no indication of effect on atrioventricular nodal or ventricular function
time to termination of atrial arrhythmia after test agent administration (atrial flutter; i.v. bolus 3 mg/kg (two dogs) or 10 mg/kg (third dog)): 10 to 120 s
atrial rate during atrial flutter (atrial flutter; i.v. bolus 3 mg/kg (two dogs) or 10 mg/kg (third dog), initial rates 440-530 cycles/min): slowed atrial rate
termination of atrial arrhythmia (atrial flutter; i.v. bolus 3 mg/kg, in two of three dogs): terminated the atrial arrhythmia
termination of atrial arrhythmia (atrial flutter; i.v. bolus 10 mg/kg, in the third of three dogs): terminated the atrial arrhythmia
